The text below walks through data of patent US7906128B2, “Use of neuronal sodium channel antagonists for the control of ectoparasites in homeothermic animals” (priority 2003, dated 2011).

SMILES strings stand for the structures. In brackets after ≈: the same amount, converted by molar mass.

In test [1] the test system is newly emerged larvae of blowfly, Lucilia sericata. The test can be described thus: Efficacy against blowfly larvae on treated filter paper discs. As to conditions: for LC50: Lucilia sericata. As for the experimental part:
In this evaluation, filter paper discs are treated with an acetone solution of test compound and allowed to dry.

In the next test the test system is adult fleas. The test can be described thus: Efficacy against adult fleas on beagles, full body spray. The class given is in vivo. As to conditions: full body spray 0.40% (wt/vol), Compound A 20 mg/kg, Standard 14.5 mg/kg body wt. As for the experimental part:
In this evaluation twelve beagles are each infested with 100 unfed adult fleas. Each dog is assessed for its ability to retain fleas by a comb count taken 24 hours post infestation. The dogs are blocked by these flea counts and randomly assigned to one of four treatment groups. Test compounds are applied as a full body spray of a 0.40% (wt/vol) solution of test compound in a mixture of 1% Miglyol in N-methyl-2-pyrrolidinone. One day prior to treatment each dog is infested with 100 fleas and one day post treatment the dogs are comb counted to check for knockdown efficacy. The dogs were subsequently re-infested with fleas and comb counted 24 hours later at weekly intervals.

Usually LC50 stands for the concentration lethal to half of the exposed cells or organisms. Low values mean greater toxicity, high ones lower toxicity. In the case of `N#Cc1nn(-c2c(Cl)cc(C(F)(F)F)cc2Cl)c(N)c1[S+]([O-])C(F)(F)F` (centres unmarked) [Standard, fipronil], the LC50 was 0.1 µg/mL (≈ 0.229 µM) in test [1] (24 h) and 0.07 µg/mL (≈ 0.16 µM) in test [1] (48 h). Also, the LC99 in test [1] (mortality at 24 h) was 0.40 µg/mL; in test [1] (mortality at 48 h), 0.30 µg/mL. Also, the “% Efficacy relative to nontreated control” value in the test with adult fleas (1 DAT), with adult fleas (7 DAT), in the test on adult fleas (14 DAT), in the test on adult fleas (21 DAT), in the test on adult fleas (28 DAT) and in the test on adult fleas (35 DAT) was 100% in each case. The “% Efficacy relative to nontreated control” value in the test on adult fleas (42 DAT) is 100%; in the test on adult fleas (49 DAT), 100%; in the test on adult fleas (56 DAT), 100%; with adult fleas (62 DAT), 99.5%.
